# Results taken from patent US20170334934A1, “Macrocyclic picolinamides as fungicides” (DOW AGROSCIENCES LLC, priority 2014, published 2017).
# Where two headings read alike, the source gives them in different places.
# Experiments:
# Puccinia triticina = experiment: Fungicidal activity: Wheat Brown Rust (PUCCRT), wheat seedlings; assay type: in vivo; conditions: for pest or weed control at 100 µg/mL: High Volume (100 ppm); for pest or weed control at 121.5 g/ha: Low Volume (121.5 g/H)
# Method: Technical grades of materials were dissolved in acetone, which were then mixed with nine volumes of water containing 110 ppm Triton X-100. The fungicide solutions were applied onto wheat seedlings using an automated booth sprayer to run-off. All sprayed plants were allowed to air dry prior to further handling. All fungicides were evaluated using the aforementioned method for their activity vs. all target diseases, unless stated otherwise. Wheat leaf blotch and brown rust activity were also evaluated using track spray applications, in which case the fungicides were formulated as EC formulations, containing 0.1% Trycol 5941 in the spray solutions. Wheat plants (variety Yuma) were grown from seed in a greenhouse in 50% mineral soil/50% soil-less Metro mix until the first leaf was fully emerged, with 7-10 seedlings per pot. These plants were inoculated with an aqueous spore suspension of Zymoseptoria tritici either prior to or after fungicide treatments. After inoculation the plants were kept in 100% relative humidity (one day in a dark dew chamber followed by two to three days in a lighted dew chamber at 20° C.) to permit spores to germinate and infect the leaf. The plants were then transferred to a greenhouse set at 20° C. for disease to develop. When disease symptoms were fully expressed on the 1st leaves of untreated plants, infection levels were assessed on a scale of 0 to 100 percent disease severity. Percent disease control was calculated using the ratio of disease severity on treated plants relative to untreated plants. Example B: Evaluation of Fungicidal Activity: Wheat Brown Rust (Puccinia triticina; Synonym: Puccinia recondita f. sp. tritici; Bayer Code PUCCRT) Wheat plants (variety Yuma) were grown from seed in a greenhouse in 50% mineral soil/50% soil-less Metro mix until the first leaf was fully emerged, with 7-10 seedlings per pot. These plants were inoculated with an aqueous spore suspension of Puccinia triticina either prior to or after fungicide treatments. After inoculation the plants were kept in a dark dew room at 22° C. with 100% relative humidity overnight to permit spores to germinate and infect the leaf. The plants were then transferred to a greenhouse set at 24° C. for disease to develop. Fungicide formulation, application and disease assessment followed the procedures as described in the Example A.
# [1] = system: Mycosphaerella graminicola; Anamorph: Zymoseptoria tritici; experiment: Fungicidal activity: Leaf Blotch of Wheat (SEPTTR), wheat seedlings; assay type: in vivo; conditions: for pest or weed control at 121.5 g/ha: Low Volume (121.5 g/H)
# Method: Example A: Evaluation of Fungicidal Activity: Leaf Blotch of Wheat (Mycosphaerella graminicola; Anamorph: Zymoseptoria tritici; Bayer Code […]) Technical grades of materials were dissolved in acetone, which were then mixed with nine volumes of water containing 110 ppm Triton X-100. The fungicide solutions were applied onto wheat seedlings using an automated booth sprayer to run-off. All sprayed plants were allowed to air dry prior to further handling. All fungicides were evaluated using the aforementioned method for their activity vs. all target diseases, unless stated otherwise. Wheat leaf blotch and brown rust activity were also evaluated using track spray applications, in which case the fungicides were formulated as EC formulations, containing 0.1% Trycol 5941 in the spray solutions. Wheat plants (variety Yuma) were grown from seed in a greenhouse in 50% mineral soil/50% soil-less Metro mix until the first leaf was fully emerged, with 7-10 seedlings per pot. These plants were inoculated with an aqueous spore suspension of Zymoseptoria tritici either prior to or after fungicide treatments. After inoculation the plants were kept in 100% relative humidity (one day in a dark dew chamber followed by two to three days in a lighted dew chamber at 20° C.) to permit spores to germinate and infect the leaf. The plants were then transferred to a greenhouse set at 20° C. for disease to develop. When disease symptoms were fully expressed on the 1st leaves of untreated plants, infection levels were assessed on a scale of 0 to 100 percent disease severity. Percent disease control was calculated using the ratio of disease severity on treated plants relative to untreated plants.
# [2] = 24 h, 1 Day Protectant, read-out: PUCCRT disease control rating, 1DP
# [3] = 72 h, 3 Day Curative, read-out: PUCCRT disease control rating, 3DC
# [4] = 24 h, High Volume (100 ppm), 1 Day Protectant, wheat, read-out: SEPTTR disease control rating, 1DP
# [5] = 72 h, High Volume (100 ppm), 3 Day Curative, wheat, read-out: SEPTTR disease control rating, 3DC
# [6] = 24 h, 1 Day Protectant, wheat, read-out: SEPTTR disease control rating, 1DP
# [7] = 72 h, 3 Day Curative, wheat, read-out: SEPTTR disease control rating, 3DC
Compound,pest or weed control at 100 µg/mL (Puccinia triticina; [2]),pest or weed control at 100 µg/mL (Puccinia triticina; [3]),"pest or weed control at 100 µg/mL [1, 4]","pest or weed control at 100 µg/mL [1, 5]","pest or weed control at 100 µg/mL ([1]; 24 h, read-out: SEPTTR disease control rating, 1DP)","pest or weed control at 100 µg/mL ([1]; 72 h, read-out: SEPTTR disease control rating, 3DC)",pest or weed control at 121.5 g/ha (Puccinia triticina; [2]),pest or weed control at 121.5 g/ha (Puccinia triticina; [3]),"pest or weed control at 121.5 g/ha [1, 6]","pest or weed control at 121.5 g/ha [1, 7]"
COc1ccnc(C(=O)N[C@H]2CCO[C@H](Cc3ccccc3)[C@@H](OCC(C)C)[C@H](C)OC2=O)c1O [Compound 51],> 70%,> 70%,> 70%,< 70%,–,–,–,–,–,–
COc1ccnc(C(=O)N[C@H]2CCO[C@H](Cc3ccc(F)cc3)[C@@H](Oc3ccccc3)[C@H](C)OC2=O)c1O [Compound 52],> 70%,> 70%,> 70%,> 70%,–,–,–,–,–,–
COc1ccnc(C(=O)N[C@H]2CCO[C@H](Cc3ccc(F)cc3)[C@@H](OCC(C)C)[C@H](C)OC2=O)c1O [Compound 53],> 70%,> 70%,> 70%,> 70%,–,–,–,–,–,–
COc1ccnc(C(=O)N[C@H]2CCO[C@H](Cc3ccc(F)cc3)[C@@H](OC(=O)C(C)C)[C@H](C)OC2=O)c1O [Compound 54],> 70%,> 70%,> 70%,> 70%,–,–,–,–,–,–
"C=CCO[C@H]1[C@H](C)OC(=O)[C@@H](NC(=O)c2nccc(OC)c2O)CCO[C@@H]1Cc1ccc(F)cc1 [Compound 55, N-((2R,3S,4S,7S)-3-(allyloxy)-2-(4-fluorobenzyl)-4-methyl-6-oxo-1,5-dioxonan-7-yl)-3-hydroxy-4-methoxypicolinamide]",> 70%,> 70%,> 70%,> 70%,–,–,–,–,–,–
"CCCO[C@H]1[C@H](C)OC(=O)[C@@H](NC(=O)c2nccc(OC)c2O)CCO[C@@H]1Cc1ccc(F)cc1 [Compound 56, N-((2R,3S,4S,7S)-2-(4-fluorobenzyl)-4-methyl-6-oxo-3-propoxy-1,5-dioxonan-7-yl)-3-hydroxy-4-methoxypicolinamide]",> 70%,> 70%,–,–,> 70%,> 70%,–,–,–,–
COc1ccnc(C(=O)N[C@H]2CCO[C@H](Cc3ccccc3)[C@@H](Oc3ccccc3)[C@H](C)OC2=O)c1O [Compound 57],> 70%,> 70%,> 70%,> 70%,–,–,–,–,–,–
COc1ccnc(C(=O)N[C@H]2CCO[C@H](CC3CCCC3)[C@@H](Oc3ccccc3)[C@H](C)OC2=O)c1O [Compound 58],> 70%,> 70%,> 70%,> 70%,–,–,–,–,–,–
COc1ccc(C[C@H]2OCC[C@H](NC(=O)c3nccc(OC)c3O)C(=O)O[C@@H](C)[C@@H]2OCC2CC2)cc1 [Compound 59],> 70%,> 70%,< 70%,> 70%,–,–,–,–,–,–
COc1ccc(C[C@H]2OCC[C@H](NC(=O)c3nccc(OC)c3O)C(=O)O[C@@H](C)[C@@H]2Oc2ccccc2)cc1 [Compound 60],> 70%,> 70%,> 70%,> 70%,–,–,–,–,–,–
C=C(C)CO[C@H]1[C@H](C)OC(=O)[C@@H](NC(=O)c2nccc(OC)c2O)CCO[C@@H]1CC [Compound 61],> 70%,> 70%,< 70%,> 70%,–,–,–,–,–,–
CC[C@H]1OCC[C@H](NC(=O)c2nccc(OC)c2O)C(=O)O[C@@H](C)[C@@H]1OCC(C)C [Compound 62],> 70%,> 70%,< 70%,> 70%,–,–,–,–,–,–
CC[C@H]1OCC[C@H](NC(=O)c2nccc(OC)c2O)C(=O)O[C@@H](C)[C@@H]1Oc1ccccc1 [Compound 63],> 70%,> 70%,> 70%,> 70%,–,–,–,–,–,–
CC[C@H]1OCC[C@H](NC(=O)c2nccc(OC)c2O)C(=O)O[C@@H](C)[C@@H]1Oc1ccc(F)cc1 [Compound 64],> 70%,> 70%,> 70%,> 70%,–,–,–,–,–,–
CC[C@H]1OCC[C@H](NC(=O)c2nccc(OC)c2O)C(=O)O[C@@H](C)[C@@H]1OC(=O)C(C)C [Compound 65],> 70%,> 70%,< 70%,< 70%,–,–,–,–,–,–
COc1ccnc(C(=O)N[C@H]2CCOC[C@@H](OCc3ccccc3)[C@H](C)OC2=O)c1O [Compound 66],> 70%,> 70%,< 70%,< 70%,–,–,–,–,–,–
COc1ccnc(C(=O)N[C@H]2CCOC[C@@H](OCC(C)C)[C@H](C)OC2=O)c1O [Compound 67],> 70%,> 70%,> 70%,> 70%,–,–,–,–,–,–
COc1ccnc(C(=O)N[C@H]2CCOC[C@@H](OCCCC(F)(F)F)[C@H](C)OC2=O)c1O [Compound 68],> 70%,> 70%,< 70%,< 70%,–,–,–,–,–,–
COc1ccnc(C(=O)N[C@H]2CCOC[C@@H](Oc3ccccc3)[C@H](C)OC2=O)c1O [Compound 69],> 70%,> 70%,> 70%,> 70%,–,–,–,–,–,–
COc1ccnc(C(=O)N[C@H]2CCOC[C@@H](OC(=O)C(C)C)[C@H](C)OC2=O)c1O [Compound 70],< 70%,< 70%,< 70%,< 70%,–,–,–,–,–,–
COc1ccnc(C(=O)N[C@H]2CCO[C@H](Cc3ccccc3)[C@@H](OCC(C)C)[C@H](C)OC2=O)c1OC(C)=O [Compound 71],–,–,–,–,–,–,> 70%,> 70%,> 70%,> 70%
COc1ccnc(C(=O)N[C@H]2CCO[C@H](Cc3ccccc3)[C@@H](OCC(C)C)[C@H](C)OC2=O)c1OCOC(C)=O [Compound 72],–,–,–,–,–,–,> 70%,> 70%,> 70%,> 70%
COc1ccnc(C(=O)N[C@H]2CCO[C@H](Cc3ccc(F)cc3)[C@@H](Oc3ccccc3)[C@H](C)OC2=O)c1OCOC(C)=O [Compound 73],–,–,–,–,–,–,> 70%,> 70%,> 70%,> 70%
COc1ccnc(C(=O)N[C@H]2CCO[C@H](Cc3ccc(F)cc3)[C@@H](OC(=O)C(C)C)[C@H](C)OC2=O)c1OCOC(C)=O [Compound 74],–,–,–,–,–,–,> 70%,> 70%,> 70%,> 70%
